Organism: Rattus norvegicus
Experiment: DrugMatrix - Regimen: Daily Repeat
Assay type: toxicity, organism-based, Sprague-Dawley
Design: regimen Daily Repeat, gender Male, age 6-8 weeks
Details: in vivo, po, route oral GAVAGE, vehicle .5 % CMC; for BASOPHIL / EOSINOPHIL / ERYTHROCYTE COUNT / HEMATOCRIT / HEMOGLOBIN / LEUKOCYTE COUNT / LYMPHOCYTE / MEAN CORPUSCULAR HEMOGLOBIN / MEAN CORPUSCULAR HEMOGLOBIN CONCENTRATION / MEAN CORPUSCULAR VOLUME / MONOCYTE / NEUTROPHIL / PLATELET COUNT: tissue Blood; for ALANINE AMINOTRANSFERASE / ALBUMIN / ALKALINE PHOSPHATASE / ASPARTATE AMINOTRANSFERASE / BLOOD UREA NITROGEN / CHLORIDE / CHOLESTEROL / CREATINE PHOSPHOKINASE / CREATININE / GLUCOSE / PHOSPHORUS / POTASSIUM / SODIUM / TOTAL PROTEIN: tissue Plasma
[1] = 0 mg/kg, 72 h, dose level Control, time 3 day
[2] = 0 mg/kg, 120 h, dose level Control, time 5 day
[3] = 50 mg/kg, 72 h, dose level Low, time 3 day
[4] = 50 mg/kg, 120 h, dose level Low, time 5 day
[5] = 2000 mg/kg, 72 h, dose level High, time 3 day
[6] = 2000 mg/kg, 120 h, dose level High, time 5 day

NC1CCN(c2nc3c(cc2F)c(=O)c(C(=O)O)cn3-c2ccc(F)cc2F)C1 (configuration not stated) [TOSUFLOXACIN]
BASOPHIL [1]: 0% | EOSINOPHIL [1]: 0.4% | ERYTHROCYTE COUNT [1]: 6.43 x10E6/uL | HEMATOCRIT [1]: 37.36% | HEMOGLOBIN [1]: 13.98 G/DL | LEUKOCYTE COUNT [1]: 13 x10E3/uL | LYMPHOCYTE [1]: 81.4% | MEAN CORPUSCULAR HEMOGLOBIN [1]: 21.9 pg | MEAN CORPUSCULAR HEMOGLOBIN CONCENTRATION [1]: 37.4 G/DL | MEAN CORPUSCULAR VOLUME [1]: 58.52 fL | MONOCYTE [1]: 0.4% | NEUTROPHIL [1]: 18% | PLATELET COUNT [1]: 1386 x10E3/uL | ALANINE AMINOTRANSFERASE [1]: 39.33 u/L | ALBUMIN [1]: 3.57 G/DL | ALKALINE PHOSPHATASE [1]: 283.83 u/L | ASPARTATE AMINOTRANSFERASE [1]: 69.5 u/L | BLOOD UREA NITROGEN [1]: 14.83 mg/dL | CHLORIDE [1]: 107.33 MEQ/L | CHOLESTEROL [1]: 75.17 mg/dL | CREATINE PHOSPHOKINASE [1]: 107.67 u/L | CREATININE [1]: 0.48 mg/dL | GLUCOSE [1]: 172.5 mg/dL | PHOSPHORUS [1]: 10.48 mg/dL | POTASSIUM [1]: 6.9 MEQ/L | SODIUM [1]: 152.33 MEQ/L | TOTAL PROTEIN [1]: 5.9 G/DL | BASOPHIL [2]: 0% | EOSINOPHIL [2]: 0.4% | ERYTHROCYTE COUNT [2]: 6.96 x10E6/uL | HEMATOCRIT [2]: 41.12% | HEMOGLOBIN [2]: 15.24 G/DL | LEUKOCYTE COUNT [2]: 11.06 x10E3/uL | LYMPHOCYTE [2]: 88.6% | MEAN CORPUSCULAR HEMOGLOBIN [2]: 21.96 pg | MEAN CORPUSCULAR HEMOGLOBIN CONCENTRATION [2]: 37.1 G/DL | MEAN CORPUSCULAR VOLUME [2]: 59.12 fL | MONOCYTE [2]: 0.2% | NEUTROPHIL [2]: 10.8% | PLATELET COUNT [2]: 1155.8 x10E3/uL | ALANINE AMINOTRANSFERASE [2]: 36.33 u/L | ALBUMIN [2]: 3.72 G/DL | ALKALINE PHOSPHATASE [2]: 340.33 u/L | ASPARTATE AMINOTRANSFERASE [2]: 68.33 u/L | BLOOD UREA NITROGEN [2]: 15 mg/dL | CHLORIDE [2]: 108.17 MEQ/L | CHOLESTEROL [2]: 74.67 mg/dL | CREATINE PHOSPHOKINASE [2]: 110.67 u/L | CREATININE [2]: 0.47 mg/dL | GLUCOSE [2]: 171.33 mg/dL | PHOSPHORUS [2]: 10.05 mg/dL | POTASSIUM [2]: 6.7 MEQ/L | SODIUM [2]: 155.5 MEQ/L | TOTAL PROTEIN [2]: 6.33 G/DL | BASOPHIL [3]: 0% | EOSINOPHIL [3]: 0% | ERYTHROCYTE COUNT [3]: 6.96 x10E6/uL | HEMATOCRIT [3]: 39.2% | HEMOGLOBIN [3]: 14.2 G/DL | LEUKOCYTE COUNT [3]: 12.93 x10E3/uL | LYMPHOCYTE [3]: 90% | MEAN CORPUSCULAR HEMOGLOBIN [3]: 20.4 pg | MEAN CORPUSCULAR HEMOGLOBIN CONCENTRATION [3]: 36.27 G/DL | MEAN CORPUSCULAR VOLUME [3]: 56.3 fL | MONOCYTE [3]: 0% | NEUTROPHIL [3]: 10% | PLATELET COUNT [3]: 1074.33 x10E3/uL | ALANINE AMINOTRANSFERASE [3]: 36.67 u/L | ALBUMIN [3]: 3.4 G/DL | ALKALINE PHOSPHATASE [3]: 240 u/L | ASPARTATE AMINOTRANSFERASE [3]: 66.33 u/L | BLOOD UREA NITROGEN [3]: 13 mg/dL | CHLORIDE [3]: 106.33 MEQ/L | CHOLESTEROL [3]: 63 mg/dL | CREATINE PHOSPHOKINASE [3]: 121.33 u/L | CREATININE [3]: 0.53 mg/dL | GLUCOSE [3]: 176.67 mg/dL | PHOSPHORUS [3]: 10.7 mg/dL | POTASSIUM [3]: 6.8 MEQ/L | SODIUM [3]: 151.33 MEQ/L | TOTAL PROTEIN [3]: 5.6 G/DL | BASOPHIL [4]: 0% | EOSINOPHIL [4]: 0% | ERYTHROCYTE COUNT [4]: 6.08 x10E6/uL | HEMATOCRIT [4]: 34.23% | HEMOGLOBIN [4]: 12.7 G/DL | LEUKOCYTE COUNT [4]: 19.4 x10E3/uL | LYMPHOCYTE [4]: 93.33% | MEAN CORPUSCULAR HEMOGLOBIN [4]: 21 pg | MEAN CORPUSCULAR HEMOGLOBIN CONCENTRATION [4]: 37.13 G/DL | MEAN CORPUSCULAR VOLUME [4]: 56.57 fL | MONOCYTE [4]: 0% | NEUTROPHIL [4]: 6.67% | PLATELET COUNT [4]: 1222.33 x10E3/uL | ALANINE AMINOTRANSFERASE [4]: 34 u/L | ALBUMIN [4]: 3.43 G/DL | ALKALINE PHOSPHATASE [4]: 218.33 u/L | ASPARTATE AMINOTRANSFERASE [4]: 56.33 u/L | BLOOD UREA NITROGEN [4]: 11 mg/dL | CHLORIDE [4]: 108 MEQ/L | CHOLESTEROL [4]: 63.33 mg/dL | CREATINE PHOSPHOKINASE [4]: 106.33 u/L | CREATININE [4]: 0.5 mg/dL | GLUCOSE [4]: 169.67 mg/dL | PHOSPHORUS [4]: 10.13 mg/dL | POTASSIUM [4]: 6.4 MEQ/L | SODIUM [4]: 152 MEQ/L | TOTAL PROTEIN [4]: 5.67 G/DL | BASOPHIL [5]: 0% | EOSINOPHIL [5]: 0% | ERYTHROCYTE COUNT [5]: 6.75 x10E6/uL | HEMATOCRIT [5]: 40.45% | HEMOGLOBIN [5]: 14.85 G/DL | LEUKOCYTE COUNT [5]: 13.75 x10E3/uL | LYMPHOCYTE [5]: 88.5% | MEAN CORPUSCULAR HEMOGLOBIN [5]: 22.05 pg | MEAN CORPUSCULAR HEMOGLOBIN CONCENTRATION [5]: 36.65 G/DL | MEAN CORPUSCULAR VOLUME [5]: 59.95 fL | MONOCYTE [5]: 0% | NEUTROPHIL [5]: 11.5% | PLATELET COUNT [5]: 1313.5 x10E3/uL | ALANINE AMINOTRANSFERASE [5]: 30.33 u/L | ALBUMIN [5]: 3.63 G/DL | ALKALINE PHOSPHATASE [5]: 215 u/L | ASPARTATE AMINOTRANSFERASE [5]: 58.67 u/L | BLOOD UREA NITROGEN [5]: 11.33 mg/dL | CHLORIDE [5]: 106.67 MEQ/L | CHOLESTEROL [5]: 79 mg/dL | CREATINE PHOSPHOKINASE [5]: 134.33 u/L | CREATININE [5]: 0.5 mg/dL | GLUCOSE [5]: 175 mg/dL | PHOSPHORUS [5]: 11.67 mg/dL | POTASSIUM [5]: 7.4 MEQ/L | SODIUM [5]: 153.33 MEQ/L | TOTAL PROTEIN [5]: 6.17 G/DL | BASOPHIL [6]: 0% | EOSINOPHIL [6]: 0.33% | ERYTHROCYTE COUNT [6]: 6.63 x10E6/uL | HEMATOCRIT [6]: 39.83% | HEMOGLOBIN [6]: 14.4 G/DL | LEUKOCYTE COUNT [6]: 13.93 x10E3/uL | LYMPHOCYTE [6]: 93.67% | MEAN CORPUSCULAR HEMOGLOBIN [6]: 21.83 pg | MEAN CORPUSCULAR HEMOGLOBIN CONCENTRATION [6]: 36.23 G/DL | MEAN CORPUSCULAR VOLUME [6]: 60.27 fL | MONOCYTE [6]: 0% | NEUTROPHIL [6]: 6% | PLATELET COUNT [6]: 1193.67 x10E3/uL | ALANINE AMINOTRANSFERASE [6]: 45.67 u/L | ALBUMIN [6]: 3.47 G/DL | ALKALINE PHOSPHATASE [6]: 280 u/L | ASPARTATE AMINOTRANSFERASE [6]: 64.67 u/L | BLOOD UREA NITROGEN [6]: 9.67 mg/dL | CHLORIDE [6]: 108 MEQ/L | CHOLESTEROL [6]: 65.67 mg/dL | CREATINE PHOSPHOKINASE [6]: 144.33 u/L | CREATININE [6]: 0.5 mg/dL | GLUCOSE [6]: 162.33 mg/dL | PHOSPHORUS [6]: 9.47 mg/dL | POTASSIUM [6]: 6.3 MEQ/L | SODIUM [6]: 152.67 MEQ/L | TOTAL PROTEIN [6]: 5.8 G/DL
